# According to patent US8309553B2, “Anhydrous crystal form of ovrepitant maleate” (Glaxo Group Limited, priority 2008, dated 2012):
# Experiments:
# [1] = stability of the crystalline form (statement only, no method described); type: physicochemical
# [2] = hygroscopicity of the crystalline form (statement only, no method described); type: physicochemical; conditions: solid form
structure (smiles),measurement,setting,value
"Cc1cc(F)ccc1[C@H]1C[C@@H](N2CCN3C(=O)CC[C@H]3C2)CCN1C(=O)N(C)[C@H](C)c1cc(C(F)(F)F)cc(C(F)(F)F)c1.O=C(O)/C=C\C(=O)O [Form 1, (2R,4S)—N-{(1R)-1-[3,5-bis(trifluoromethyl)phenyl]ethyl}-2-(4-fluoro-2-methylphenyl)-N-methyl-4-[(8aS)-6-oxohexahydropyrrolo[1,2-a]pyrazin-2(1H)-yl]-1-piperidinecarboxamide maleate]",thermodynamic stability relative to Form 2,[1]; compared with Form 2 orvepitant maleate,thermodynamically more stable
same,stability of the crystalline form,[1]; solid form,particularly stable
same,hygroscopicity,[2],essentially non hygroscopic
